Test results: patent US20260355137A1, “NOVEL OPHTHALMIC FORMULATION” (FERTIS INDIA PVT LTD, priority 2022, published 2026)
Entries after “also recorded” stand apart in the source; their conditions may differ.

How the values were obtained:
Type in all cases: in vivo, New Zealand rabbit
[1] = test system: cataract induced left eye; assay: Macroscopic examination, cataract induced left eye (cinnamic acid derivatives, Tables 10-11); conditions: for No Abnormality Detected, incidence: animals affected/6
Description: (§1) An illustrative ophthalmic formulation for treatment of eye disease is set forth below: The formulations provided herein below are tested in cataract induced New Zealand rabbits, and the results are discussed herein below.
(§2) Cataract was induced by injecting 0.5% Methyl Cellulose, which is replaced by aqueous humor in the rabbit eye (i.e., 0.2 mL of Aqueous humor was withdrawn and the same 0.2 mL of 0.5% Methyl cellulose was injected as a replacement). Cataract was observed within 3-4 days of 0.5% Methyl cellulose replacement. Cataract induction was performed to left eye and right eye was served as a control.
(§3) Rabbits were observed by ophthalmoscope and slit lamp once in three days for cataract confirmation. Intraocular pressure was measured with a tonometer once in three days for the confirmation of glaucoma.

[2] = test system: cataract induced left eye: lens; assay: Microscopic observations (histopathology) of lens (Table 12)
Description: as §1, §2
(§4) All surviving animals were euthanized on Day 29 by overdose of Thiopental Sodium. Before scheduled euthanasia, the animals were fasted overnight (water allowed) and terminal body weights were recorded. Animals were subjected to detailed macroscopic observation during necropsy. Both right (untreated/uninduced) and left (treated/induced) eyes were collected and cornea and lens were separated, preserved in Davidson fluid. Cornea and lens selected for histopathological evaluation were processed, embedded and sections were cut at 3-5 μm thickness, Sections were placed on grease-free slides and stained with Hematoxylin and Eosin. A 5-step grading system of minimum, mild, moderate, marked and severe will be used to rank microscopic findings for comparison among groups. Data was compiled based on incidences and severity of changes.

[3] = test system: intraocular pressure, induced left eye; assay: Intraocular pressure, tonometer (Table 13); design: unit not given beside the values; conditions: left eye induced/treated
Description: as §2, §3
(§5) Intra-ocular pressures were measured in animals in each group once in three days using a Tonometer. The readings were documented for each eye separately.

[4] = test system: cataract induced left eye; assay: Macroscopic examination, cataract induced left eye (Tables 14-15)
Description: as §1, §2, §3

[5] = test system: cataract induced left eye: lens and cornea; assay: Microscopic examination (histopathology) of lens and cornea (Table 16)
Description: as §1, §2, §4

[6] = test system: intraocular pressure, glaucoma-induced left eye; assay: Intraocular pressure, tonometer (Table 17); conditions: for Intraocular pressure, Mean, Left eye: Left (induced) eye; for Intraocular pressure, Mean, Left eye / Intraocular pressure, Mean, Right eye: male, 6 animals/group
Description: as §2, §3, §5

[7] = test system: cataract and intraocular pressure/glaucoma in induced rabbit eye; assay: Overall efficacy in cataract reduction and reducing intraocular pressure
Description: as §1
(§6) The following preclinical studies were conducted in rabbit model to test the efficacy of various active ingredients.
as §2, §3

[8] = test system: cataract induced New Zealand rabbits (left eye); assay: Macroscopic observations, cataract induced left eye (study of rosmarinic acid formulations, Tables 2-3); conditions: ocular 100 μL/rabbit, 28 days, F1 0.25%, F2 0.5%, F3 1.0% rosmarinic acid each with N-acetyl carnosine, F4 0.5% without
Description: as §1, §6, §2, §3
Test Item formulations were administered through ocular route. Ocular route has been chosen as it is the intended therapeutic route of administration in humans.
All test formulations provided as above were administered topically as a therapeutic treatment. A total of 100 μL/Rabbit of placebo or Rosmarinic acid formulations (F1, F2, F3 and F4) were instilled in the 50 μL/eye (left) in two divided doses for 28 days […]

[9] = test system: cataract induced left eye: lens and cornea; assay: Microscopic observations (histopathology) of lens and cornea (Tables 4-8); conditions: 0.5% rosmarinic acid, Table 8, G5 group
Description: as §1, §2
(§7) All test formulations provided as above were administered topically as a therapeutic treatment. A total of 100 μL/Rabbit of placebo or Rosmarinic acid formulations (F1, F2, F3 and F4) were instilled in the 50 μL/eye (left) in two divided doses for 28 days
as §4

[10] = test system: intraocular pressure, glaucoma-induced left eye; assay: Intraocular pressure, tonometer (Table 9); conditions: 0.5%, Table 9 G5 group
Description: as §2, §3, §7

[11] = left eye (cataract induced), macroscopic
[12] = left eye (cataract induced), lens
[13] = left eye (cataract induced), lens, number of animals
[14] = second study, 0.5% rosmarinic acid (G2), 0.25% caffeic acid (G6)

Question: What does the source list for `O=C(O)/C=C/c1ccc(O)c(O)c1` [Caffeic acid]?
Answer: Opacity, cornea and red discoloured, with diffuse opacity: Moderate, incidence [1, 11]: 1/6; Opacity, cornea, diffuse: Mild, incidence [1, 11]: 1/6; Opacity, cornea, diffuse: Minimal, incidence [1, 11]: 1/6; Opacity, cornea, diffuse: Moderate, incidence [1, 11]: 1/6; No Abnormality Detected, incidence [1, 11]: 1/6; histopathological findings, lens (in words) ([2]; Table 12, G2 0.5% rosmarinic acid, G6 0.25% caffeic acid): a higher incidence of lenticular degeneration; Within Normal Histological Limits, incidence ([2]; left eye (cataract induced)): 0/6; Epithelial proliferation, incidence [2, 12]: 3/6; Epithelial proliferation: Absent, incidence [2, 12]: 3/6; Lenticular Degeneration, incidence [2, 12]: 6/6; Liquefaction, incidence [2, 12]: 4/6; Liquefaction: Absent, incidence [2, 12]: 2/6; Epithelial proliferation: Mild, incidence [2, 13]: 1; Epithelial proliferation: Minimal, incidence [2, 13]: 1; Epithelial proliferation: Moderate, incidence [2, 13]: 1; Liquefaction: Mild, incidence [2, 13]: 1; Liquefaction: Minimal, incidence [2, 13]: 2; Liquefaction: Moderate, incidence [2, 13]: 1; Intraocular Pressure, mean ([3]; Day 3): 90.35; Intraocular Pressure, mean ([3]; Day 6): 63.22; Intraocular Pressure, mean ([3]; Day 9): 62.17; Intraocular Pressure, mean ([3]; Day 12): 65.93; Intraocular Pressure, mean ([3]; Day 15): 45.45; Intraocular Pressure, mean ([3]; Day 18): 45.73; Intraocular Pressure, mean ([3]; Day 21): 41.50; Intraocular Pressure, mean ([3]; Day 24): 38.93; Intraocular Pressure, mean ([3]; Day 27): 32.12; Intraocular Pressure, mean ([3]; Day 30): 30.78; Intraocular Pressure, mean ([3]; Day 33): 26.60↓↓; cataract efficacy, macroscopic (in words) ([4]; Table 15): all 6 animals were completely recovered, and no cataract was observed at all; No Abnormality Detected, incidence [4, 11]: 6/6; cataract efficacy, histopathology (in words) ([5]; Table 16): fully regenerated in 5 out of 6 animals, from severe degeneration to a minimal scale; also recorded: One animal exhibited complete recovery; Lens, Liquefaction: Minimal, incidence ([5]; left eye induced): 5/6; No abnormality (histopathology), incidence ([5]; left eye induced): 1/6; Intraocular pressure, Mean, Left eye ([6]; Day 3): 41.50 mmHg; Intraocular pressure, Mean, Left eye ([6]; Day 6): 23.89 mmHg; Intraocular pressure, Mean, Left eye ([6]; Day 9): 21.61 mmHg; Intraocular pressure, Mean, Left eye ([6]; Day 12): 25.33 mmHg; Intraocular pressure, Mean, Left eye ([6]; Day 15): 25.11 mmHg; Intraocular pressure, Mean, Left eye ([6]; Day 18): 29.56 mmHg; Intraocular pressure, Mean, Left eye ([6]; Day 21): 29.94 mmHg; Intraocular pressure, Mean, Left eye ([6]; Day 25): 24.78 mmHg; Intraocular pressure, Mean, Left eye ([6]; Day 28, ↓↓ = Significantly low at P ≤ 0.01 compared to respective control): 21.11↓↓ mmHg; Intraocular pressure, Mean, Right eye ([6]; Day 3): 15.83 mmHg; Intraocular pressure, Mean, Right eye ([6]; Day 6): 19.11 mmHg; Intraocular pressure, Mean, Right eye ([6]; Day 9): 16.61 mmHg; Intraocular pressure, Mean, Right eye ([6]; Day 12): 16.94 mmHg; Intraocular pressure, Mean, Right eye ([6]; Day 15): 14.61 mmHg; Intraocular pressure, Mean, Right eye ([6]; Day 18): 15.44 mmHg; Intraocular pressure, Mean, Right eye ([6]; Day 21): 15.28 mmHg; Intraocular pressure, Mean, Right eye ([6]; Day 25): 17.17 mmHg; Intraocular pressure, Mean, Right eye ([6]; Day 28): 17.11 mmHg; intraocular pressure following treatment ([6]; induced left eye, 28-day treatment regimen, 0.5%): 21.11 mmHg; mean intraocular pressure initially measured ([6]; induced left eye, six animals, within three days): 41.5 mmHg; overall efficacy (in words) [7, 14]: showed promise; overall efficacy (in words) ([7]; second study, 0.5% rosmarinic acid (G2), 0.25% caffeic acid (G6), listed as caffeic acid): shown to be the best; overall efficacy / order of efficacy (in words) ([7]; third study, cataract reduction and reducing intraocular pressure, highest to lowest): showed the best results, with remarkable efficacy not only in cataract reduction but also in addressing glaucoma; also recorded: Caffeic Acid G3>Epigallocatechin Gallate G4>Encapsulated Feruloyl Tyramine G5>Ferulic Acid G6>Rosmarinic Acid+Caffeic Acid G2

Question: `O=C(/C=C/c1ccc(O)c(O)c1)O[C@H](Cc1ccc(O)c(O)c1)C(=O)O` [Rosmarinic acid] was tested. Which “Macroscopic inference (Left Eye)” value [8] did it give?
Answer: no abnormalities found in all the 6 animals

Question: And the “corneal edema (in words)” value [9]?
Answer: five animals' corneal edema was within histological limits and one animal with minimal corneal edema

Question: What about the “epithelial proliferation in lens (in words)” value [9] of the same compound?
Answer: In five animals' epithelial proliferation in lens was within histological limits; also recorded: Only one animal displayed minimal epithelial proliferation

Question: What about the “liquefaction in the lens (in words)” value [9] of the same compound?
Answer: in four animals, liquefaction in the lens is within histological limits; also recorded: in two animals, minimal liquefaction was observed

Question: And the “intraocular pressure following treatment” value ([10]; 28-day treatment regimen)?
Answer: 20.06 mmHg

Question: What about the “intraocular pressure initially measured” value ([10]; within six days) of the same compound?
Answer: 59.72 mmHg

Question: What about the “macroscopic examination (in words)” value ([1]; Table 11, G2 0.5% rosmarinic acid, G6 0.25% caffeic acid) of the same compound?
Answer: minimal corneal opacity in some animals, with no abnormalities in one

Question: What about the “Opacity, cornea and red discoloured, with diffuse opacity: Minimal, incidence” value [1, 11] of the same compound?
Answer: 1/6

Question: What about the “Opacity, cornea, diffuse: Mild, incidence” value [1, 11] of the same compound?
Answer: 1/6

Question: What about the “Opacity, cornea, diffuse: Minimal, incidence” value [1, 11] of the same compound?
Answer: 3/6

Question: And the “No Abnormality Detected, incidence” value [1, 11]?
Answer: 1/6

Question: What about the “Within Normal Histological Limits, incidence” value ([2]; left eye (cataract induced)) of the same compound?
Answer: 0/6

Question: What about the “Epithelial proliferation, incidence” value [2, 12] of the same compound?
Answer: 2/6

Question: And the “Epithelial proliferation: Absent, incidence” value [2, 12]?
Answer: 4/6

Question: What about the “Lenticular Degeneration, incidence” value [2, 12] of the same compound?
Answer: 4/6

Question: And the “Liquefaction, incidence” value [2, 12]?
Answer: 4/6

Question: What about the “Liquefaction: Absent, incidence” value [2, 12] of the same compound?
Answer: 2/6

Question: And the “Epithelial proliferation: Marked, incidence” value [2, 13]?
Answer: 1

Question: What about the “Epithelial proliferation: Minimal, incidence” value [2, 13] of the same compound?
Answer: 1

Question: And the “Liquefaction: Marked, incidence” value [2, 13]?
Answer: 1

Question: And the “Liquefaction: Minimal, incidence” value [2, 13]?
Answer: 3

Question: And the “Intraocular Pressure, mean” value ([3]; Day 3)?
Answer: 83.15

Question: What about the “Intraocular Pressure, mean” value ([3]; Day 6) of the same compound?
Answer: 77.55

Question: What about the “Intraocular Pressure, mean” value ([3]; Day 9) of the same compound?
Answer: 78.72

Question: What about the “Intraocular Pressure, mean” value ([3]; Day 12) of the same compound?
Answer: 66.83

Question: And the “Intraocular Pressure, mean” value ([3]; Day 15)?
Answer: 48.83

Question: What about the “Intraocular Pressure, mean” value ([3]; Day 18) of the same compound?
Answer: 48.48

Question: What about the “Intraocular Pressure, mean” value ([3]; Day 21) of the same compound?
Answer: 46.77

Question: What about the “Intraocular Pressure, mean” value ([3]; Day 24) of the same compound?
Answer: 44.55

Question: What about the “Intraocular Pressure, mean” value ([3]; Day 27) of the same compound?
Answer: 42.62

Question: What about the “Intraocular Pressure, mean” value ([3]; Day 30) of the same compound?
Answer: 23.27

Question: And the “Intraocular Pressure, mean” value ([3]; Day 33)?
Answer: 18.45↓↓

Question: And the “overall efficacy (in words)” value ([7]; 0.5% rosmarinic acid, G5 of first study)?
Answer: demonstrates its efficacy not only in preventing lens liquefaction, epithelial proliferation, and corneal edema and treating cataract but also in reducing intraocular pressure

Question: What about the “overall efficacy (in words)” value [7, 14] of the same compound?
Answer: shown to be the best; also recorded: superior efficacy
